Results reported in ChEMBL document CHEMBL1134833, “Convergent synthesis of potent peptide inhibitors of the Grb2-SH2 domain by palladium catalyzed coupling of a terminal alkyne” (Bioorg Med Chem Lett, 2001).

Molecular target: Growth factor receptor-bound protein 2 (Homo sapiens, UniProt P62993)
Assay: Inhibitory concentration required against Src homology (SH2) domain of Growth factor receptor bound protein 2 by ELISA binding assay

Sequence of Growth factor receptor-bound protein 2 (P62993 whole entry): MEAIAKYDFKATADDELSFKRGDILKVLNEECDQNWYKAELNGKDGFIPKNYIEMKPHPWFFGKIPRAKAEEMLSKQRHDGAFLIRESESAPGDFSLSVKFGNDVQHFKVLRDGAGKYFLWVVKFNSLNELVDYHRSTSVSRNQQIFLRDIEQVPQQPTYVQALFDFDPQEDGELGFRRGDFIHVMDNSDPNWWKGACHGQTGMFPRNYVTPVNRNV

SMILES	IC50
CC(=O)N[C@@H](Cc1ccc(CP(=O)(O)O)cc1)C(=O)NC1(C(=O)N[C@@H](CC(N)=O)C(=O)NCCCc2cccc3ccccc23)CCCCC1	42.9 nM
COc1cc2cccc(CCCNC(=O)[C@H](CC(N)=O)NC(=O)C3(NC(=O)[C@H](Cc4ccc(CP(=O)(O)O)cc4)NC(C)=O)CCCCC3)c2cc1OC	84.4 nM
CC(=O)N[C@@H](Cc1ccc(CP(=O)(O)O)cc1)C(=O)NC1(C(=O)N[C@@H](CC(N)=O)C(=O)NCCCc2cccc3ccc(O)cc23)CCCCC1	24.6 nM
CC(=O)N[C@@H](Cc1ccc(CP(=O)(O)O)cc1)C(=O)NC1(C(=O)N[C@@H](CC(N)=O)C(=O)NCCCc2cccc3cc(O)ccc23)CCCCC1	42.7 nM
CC(=O)N[C@@H](Cc1ccc(CP(=O)(O)O)cc1)C(=O)NC1(C(=O)N[C@@H](CC(N)=O)C(=O)NCCCc2ccc3cccc(O)c3c2)CCCCC1	11.1 nM
COc1ccc2c(CCCNC(=O)[C@H](CC(N)=O)NC(=O)C3(NC(=O)[C@H](Cc4ccc(CP(=O)(O)O)cc4)NC(C)=O)CCCCC3)cccc2c1	130 nM
CC(=O)N[C@@H](Cc1ccc(CP(=O)(O)O)cc1)C(=O)NC1(C(=O)N[C@@H](CC(N)=O)C(=O)NCCCc2c(O)ccc3ccccc23)CCCCC1 [CGP-78850]	43 nM
